Measurements: patent publication US20250380700A1, “HERBICIDAL COMBINATIONS AND A METHOD FOR CONTROLLING UNDESIRED VEGETATION” (UPL Mauritius Limited, priority 2022, published 2025)

Test system: weedy Glycine max
Assay: Post-emergence herbicidal activity trial on weedy Glycine max (observed efficacy vs Colby expected efficacy)
Assay type: in vivo
Experimental: Methodology: Trials were conducted to evaluate the efficacy of the combination comprising L-glufosinate ammonium and additional herbicides on weedy Glycine max.
The soil used was sandy clay loam-sand: 68.0%; silt: 8.0%; clay: 24.0%.
All treatments were in 3 replications per treatment with a spray volume of about 150 L/ha.
The expected efficacy of a combination of L-glufosinate ammonium and the other herbicides was calculated using the well-established Colby method. Any difference between the observed and “expected” efficacy could be attributed to synergy between the two compounds.
In the Colby method, the expected (or predicted) response of a combination of herbicides is calculated by taking the product of the observed response for each individual component of the combination when applied alone, divided by 100, and subtracting this value from the sum of the observed response for each component when applied alone. An unexpected enhancement in efficacy of the combination is then determined by comparing the observed response of the combination to the expected (or predicted) response as calculated from the observed response of each individual component alone. If the observed response of the combination is greater than the expected (or predicted) response, or stated conversely, if the difference between the observed and expected response is greater than zero, then the combination is said to be synergistic or unexpectedly effective (Colby, S. R., Weeds, 1967(15), p. 20-22). The Colby method requires only a single dose of each herbicide applied alone and the mixture of both doses. The formula used to calculate the expected efficacy (EE) which was compared with the observed efficacy (OE) to determine the efficacy of the present disclosure is explained hereinbelow:
The expected efficacy for a combination of two active ingredients is as follows:
The expected efficacy for a combination of three active ingredients is as follows:
wherein, • A=Observed efficacy of active ingredient A at the same concentration as used in the mixture. • B=Observed efficacy of the active ingredient B at the same concentration as used in the mixture. • C=Observed efficacy of the active ingredient C at the same concentration as used in the mixture.

Question: How did the “Observed efficacy (%) of Triclopyr (228 g a.i./ha)” value (Example 2, Table 3, 3 DAA) turn out when `O=C(O)COc1nc(Cl)c(Cl)cc1Cl` [Triclopyr] was run?
Answer: The value was 75%.

Question: And the “Observed efficacy (%) of Triclopyr (228 g a.i./ha)” value (Example 2, Table 3, 7 DAA)?
Answer: Its value is 68%.

Question: Which “Observed efficacy (%) of Saflufenacil (30 g a.i./ha)” value (Example 1, Table 2, 3 DAA) does the source give for `CC(C)N(C)S(=O)(=O)NC(=O)c1cc(-n2c(=O)cc(C(F)(F)F)n(C)c2=O)c(F)cc1Cl` [Saflufenacil] here?
Answer: Its value is 50%.

Question: And the “Observed efficacy (%) of Saflufenacil (30 g a.i./ha)” value (Example 1, Table 2, 7 DAA)?
Answer: The value was 70%.

Question: And the “Observed efficacy (%) of Saflufenacil (30 g a.i./ha)” value (Example 2, Table 3, 3 DAA)?
Answer: Its value is 65%.

Question: What about the “Observed efficacy (%) of Saflufenacil (30 g a.i./ha)” value (Example 2, Table 3, 7 DAA) of the same molecule?
Answer: The value was 70%.

Question: What about the “Observed efficacy (%) of Saflufenacil (30 g a.i./ha)” value (Example 3, Table 4, 3 DAA) of the same molecule?
Answer: The value was 65%.

Question: And the “Observed efficacy (%) of Saflufenacil (30 g a.i./ha)” value (Example 3, Table 4, 7 DAA)?
Answer: The value was 75%.

Question: Which results are given for `O=C(O)COc1ccc(Cl)cc1Cl` [2,4-D]?
Answer: Observed efficacy (%) of 2,4-D (228 g a.i./ha) (Example 3, Table 4, 3 DAA): 50%; Observed efficacy (%) of 2,4-D (228 g a.i./ha) (Example 3, Table 4, 7 DAA): 60%

Question: Which results are given for `CP(=O)(O)CC[C@H](N)C(=O)O.N` [L-glufosinate ammonium]?
Answer: Observed efficacy (%) of L-glufosinate ammonium (150 g a.i./ha) (Example 1, Table 2, 3 DAA, post-emergence): 65%; Observed efficacy (%) of L-glufosinate ammonium (150 g a.i./ha) (Example 1, Table 2, 7 DAA, post-emergence): 65%; Observed efficacy (%) of L-glufosinate ammonium (150 g a.i./ha) (Example 2, Table 3, 3 DAA): 50%; Observed efficacy (%) of L-glufosinate ammonium (150 g a.i./ha) (Example 2, Table 3, 7 DAA): 65%; Observed efficacy (%) of L-glufosinate ammonium (150 g a.i./ha) (Example 3, Table 4, 3 DAA): 50%; Observed efficacy (%) of L-glufosinate ammonium (150 g a.i./ha) (Example 3, Table 4, 7 DAA): 75%
